These are literature values, as cited in US20230106592A1, “METHOD FOR TREATING CANCER USING A COMBINATION OF DNA DAMAGING AGENTS AND ATR INHIBITORS” (Vertex Pharmaceuticals Incorporated, priority 2015, published 2023).

The test system of the data set is ovarian cancer. The settings on record: cited from earlier work.

Where two headings read alike, the source gives them in different places.

Turning to `Cn1ncnc1[C@H]1c2n[nH]c(=O)c3cc(F)cc(c23)N[C@@H]1c1ccc(F)cc1` [Talazoparib], the “Outcome of prior line of treatment” value (monotherapy, refractory high grade serous ovarian cancer subject) was “progressive disease after 10 months”.
Regarding `O=C(c1cc(Cc2n[nH]c(=O)c3ccccc23)ccc1F)N1CCN(C(=O)C2CC2)CC1` [olaparib], the “Outcome of prior line of treatment” value (ovarian cancer subject with BRCA2 germline mutation) is “no response”.
